The source of these data is patent publication US5786355A, “4,6-diarylpyrimidine derivatives and salts thereof” (Taiho Pharmaceutical Co., Ltd., priority 1995, dated 1998).

System in the first experiment: not given
Assay: not given
To be noted: J. INDIAN CHEM. SOC., 70, 266-267(1993); cited from earlier work.
Turning to `COc1ccc(-c2cc(-c3ccc(OC)c(OC)c3)nc(N)n2)c(OC)c1` [2-amino-4-(2,4-dimethoxyphenyl)-6-(3,4-dimethoxyphenyl)pyrimidine], the antibacterial activity entry was “no antibacterial activity”.

In another experiment the test system is HUVEC (human umbilical vein endothelial cell). The experiment can be described thus: HUVEC growth inhibition (3H-thymidine uptake). The class given is cell-based. To be noted: 3000 cells per well, RPMI-1640 with ECGS, EGF and 2% serum, 48 hours + 17 hours with 3H-thymidine, control as 100%, read-out: IC50 (concentration showing a 50% growth inhibitory activity). As to the method:
To a 96-well microplate, HUVEC (human umbilical vein endothelial cell; product of Kurabo Industries Ltd.) was added in an amount of 3000 cells per well, followed by culturing in 200 μl of RPMI-1640 medium (Nissui Pharmaceutical Co., Ltd.) containing 10 μg/ml of ECGS (Endothelial Cell Growth Supplement; Collaborative Co., Ltd.), 3 ng/ml of EGF ([…]; product of Genzyme Co., Ltd.) and 2% fatal calf serum at 37° C. for 48 hours using 5% CO2. To each well, 0.1 μCi (3.7 KBq) of ^3 H-Tymidine was added, followed by culturing for 17 hours. Then, the cells were collected on a glass filter and washed with 5% trichloroacetic acid and ethanol. The radioactivity taken in was measured by a β-plate (Pharmacia Laboratories, Inc.). The concentration showing a 50% growth inhibitory activity (IC50) was calculated with a control as 100%.
Take `COc1cc(OC)c(-c2cc(-c3cc(OC)c(OC)cc3OC)nc(N(C)C)n2)cc1OC` [Compound 2]: the IC50 worked out at 220 nM.
Consider `COc1cc(OC)c(-c2cc(-c3cc(OC)c(OC)cc3OC)nc(N)n2)cc1OC` [Compound 3], for which the IC50 worked out at 250 nM.
For `COc1cc(OC)c(-c2cc(-c3ccc(OCCN(C)C)cc3)nc(N(C)C)n2)cc1OC` [Compound 8], the IC50 came out at 1100 nM.
On the same count and under the same terms, under `CCN(CC)c1nc(-c2cc(OC)c(OC)cc2OC)cc(-c2cc(OC)c(OC)cc2OC)n1` [Compound 9] stands 360 nM; under `CCN(CC)c1nc(-c2ccc(OC)cc2OC)cc(-c2cc(OC)c(OC)cc2OC)n1` [Compound 17], 530 nM; under `CCN(CC)c1nc(-c2cc(OC)c(OC)c(OC)c2)cc(-c2cc(OC)c(OC)cc2OC)n1` [Compound 20, 2-diethylamino-4-(3,4,5-trimethoxyphenyl)-6-(2,4,5-trimethoxyphenyl)pyrimidine], 530 nM.
Same read-out and setting: under `COc1cc(OC)c(-c2cc(-c3cc(OC)c(O)c(OC)c3)nc(N(C)C)n2)cc1OC` [Compound 24] stands 210 nM; under `COc1cc(NS(C)(=O)=O)c(-c2cc(-c3cc(OC)c(OC)cc3OC)nc(N(C)C)n2)cc1OC` [Compound 27], 68 nM; under `COc1cc(OC)c(-c2cc(-c3nccs3)nc(N(C)C)n2)cc1OC` [Compound 30], 700 nM.
Take `COc1cc(OC)c(-c2cc(-c3cc(OC)c(OC)cc3OC)nc(NS(C)(=O)=O)n2)cc1OC` [Compound 31]: the IC50 is 520 nM.
On the same count and under the same terms, under `CCN(CC)c1nc(-c2ccc(OCCN3CCCCC3)cc2)cc(-c2cc(OC)c(OC)cc2OC)n1` [Compound 41] stands 1700 nM; under `CCN(CC)c1nc(-c2ccc(OP(=O)(O)O)cc2)cc(-c2cc(OC)c(OC)cc2OC)n1` [Compound 43], 330 nM.
